Reference: patent US20020082420A1, “Bicyclic heterocycles, pharmaceutical compositions containing them, their use, and processes for preparing them” (priority 2000, published 2002)
Where a name gives a salt, the structure may show the parent alone.

Structure (SMILES)	melting point
O=C(O)CCN1CCC(Nc2ncc3ncnc(Nc4ccc(F)c(Cl)c4)c3n2)CC1 [Example 1(1), 4-[(3-chloro-4-fluorophenyl)amino]-6-{[1-(2-carboxyethyl)piperidin-4-yl]amino}pyrimido[5,4-d]pyrimidine]	217 to 225 °C
O=C(CN1CCC(Nc2ncc3ncnc(Nc4ccc(F)c(Cl)c4)c3n2)CC1)OC1CCCCC1 [Example 2(4), 4-[(3-chloro-4-fluorophenyl)amino]-6-({1-[(cyclohexyloxycarbonyl)methyl]piperidin-4-yl}amino)pyrimido[5,4-d]pyrimidine]	184 to 186 °C
COC(=O)CC(C(=O)OC)N1CCC(Nc2ncc3ncnc(Nc4cccc(Br)c4)c3n2)CC1 (stereo not shown) (as salt: maleate) [Example 6(4), 4-[(3-bromophenyl)amino]-6-({1-[1,2-bis(methoxycarbonyl)ethyl]piperidin-4-yl}amino)pyrimido[5,4-d]pyrimidine]	193 °C
COC(=O)CCNC1(C)CCN(c2ncc3ncnc(Nc4ccc(F)c(Cl)c4)c3n2)CC1 [Example 6(3), 4-[(3-chloro-4-fluorophenyl)amino]-6-{4-methyl-4-[2-(methoxycarbonyl)ethyl]aminopiperidin-1-yl}pyrimido[5,4-d]pyrimidine]	134 to 135 °C
COC(=O)CCCN1CCC(Nc2ncc3ncnc(Nc4ccc(F)c(Cl)c4)c3n2)CC1 [Example 2(6), 4-[(3-chloro-4-fluorophenyl)amino]-6-({1-[3-(methoxycarbonyl)propyl]piperidin-4-yl}amino)pyrimido[5,4-d]pyrimidine]	135 to 137 °C
CCOC(=O)CN1CCC(Nc2ncc3ncnc(Nc4ccc(F)c(Cl)c4)c3n2)CC1 [Example 2, 4-[(3-chloro-4-fluorophenyl)amino]-6-({1-[(ethoxycarbonyl)methyl]piperidin-4-yl}amino)pyrimido[5,4-d]pyrimidine]	136 to 138 °C
CCOC(=O)CN1CCN(CC2CCN(c3ncc4ncnc(Nc5ccc(F)c(Cl)c5)c4n3)CC2)CC1 [Example 2(22), 4-[(3-chloro-4-fluorophenyl)amino]-6-[4-({4-[(ethoxycarbonyl)methyl]piperazin-1-yl}methyl)piperidin-1-yl]pyrimido[5,4-d]pyrimidine]	145 to 149 °C
O=C(O)CCN(CCC(=O)O)CC1CCN(c2ncc3ncnc(Nc4ccc(F)c(Cl)c4)c3n2)CC1 [Example 1(19), 4-[(3-chloro-4-fluorophenyl)amino]-6-(4-{[N,N-bis(2-carboxyethyl)amino]methyl}piperidin-1-yl)pyrimido[5,4-d]pyrimidine]	160 to 169 °C
O=C(O)CN[C@H]1CC[C@H](Nc2ncc3ncnc(Nc4ccc(F)c(Cl)c4)c3n2)CC1 [Example 1(27), 4-[(3-chloro-4-fluorophenyl)amino]-6-({trans-4-[(carboxymethyl)amino]cyclohex-1-yl}amino)pyrimido [5,4-d]pyrimidine]	201 to 205 °C (dec.)
O=C(O)CN1CCN(CCNc2ncc3ncnc(Nc4ccc(F)c(Cl)c4)c3n2)CC1 [Example 1(13), 4-[(3-chloro-4-fluorophenyl)amino]-6-{2-[4-(carboxymethyl)piperazin-1-yl]ethylamino}pyrimido[5,4-d]pyrimidine]	240 to 242 °C (dec.)
O=C(O)CCCN1CCC(Nc2ncc3ncnc(Nc4ccc(F)c(Cl)c4)c3n2)CC1 [Example 1(2), 4-[(3-chloro-4-fluorophenyl)amino]-6-{[1-(3-carboxypropyl)piperidin-4-yl]amino}pyrimido[5,4-d]pyrimidine]	145 to 165 °C
CC1(NCCC(=O)O)CCN(c2ncc3ncnc(Nc4ccc(F)c(Cl)c4)c3n2)CC1 [Example 1(30), 4-[(3-chloro-4-fluorophenyl)amino]-6-{4-methyl-4-[(2-carboxyethyl)amino]piperidin-1-yl}pyrimido[5,4-d]pyrimidine]	157 to 160 °C
CC(C)OC(=O)CN1CCC(Nc2ncc3ncnc(Nc4ccc(F)c(Cl)c4)c3n2)CC1 [Example 2(3), 4-[(3-chloro-4-fluorophenyl)amino]-6-({1-[(isopropyloxycarbonyl)methyl]piperidin-4-yl}amino)pyrimido[5,4-d]pyrimidine]	175 to 177 °C

More lines, now with the values ahead:

melting point	Structure (SMILES)
99 to 102 °C	COC(=O)CCCN(C)[C@H]1CC[C@H](Nc2ncc3ncnc(Nc4ccc(F)c(Cl)c4)c3n2)CC1 [Example 2(9), 4-[(3-chloro-4-fluorophenyl)amino]-6-[(trans-4-{N-[3-(methoxycarbonyl)propyl]-N-methylamino}cyclohex-1-yl)amino]pyrimido[5,4-d]pyrimidine]
126 to 128 °C	COC(=O)CCN(C)[C@H]1CC[C@H](Nc2ncc3ncnc(Nc4ccc(F)c(Cl)c4)c3n2)CC1 [Example 2(8), 4-[(3-chloro-4-fluorophenyl)amino]-6-[(trans-4-{N-[2-(methoxycarbonyl)ethyl]-N-methylamino}cyclohex-1-yl)amino]pyrimido[5,4-d]pyrimidine]
217 to 221 °C	CN(CCCC(=O)O)[C@H]1CC[C@H](Nc2ncc3ncnc(Nc4ccc(F)c(Cl)c4)c3n2)CC1 [Example 1(5), 4-[(3-chloro-4-fluorophenyl)amino]-6-({trans-4-[N-(3-carboxypropyl)-N-methylamino]cyclohex-1-yl}amino)pyrimido[5,4-d]pyrimidine]
209 to 214 °C	O=C(O)CCNCC1CCN(c2ncc3ncnc(Nc4ccc(F)c(Cl)c4)c3n2)CC1 [Example 1(16), 4-[(3-chloro-4-fluorophenyl)amino]-6-(4-{[(2-carboxyethyl)amino]methyl}piperidin1-yl)pyrimido[5,4-d]pyrimidine]
277 to 282 °C	NC1(C(=O)O)CCN(c2ncc3ncnc(Nc4ccc(F)c(Cl)c4)c3n2)CC1 [Example 1(14), 4-[(3-chloro-4-fluorophenyl)amino]-6-(4-amino-4-carboxypiperidin-1-yl)pyrimido[5,4-d]pyrimidine]
245 °C (dec.)	O=C(O)CN(CC(=O)O)[C@H]1CC[C@H](Nc2ncc3ncnc(Nc4ccc(F)c(Cl)c4)c3n2)CC1 [Example 1(18), 4-[(3-chloro-4-fluorophenyl)amino]-6-({trans-4-[N,N-bis(carboxymethyl)amino]cyclohex-1-yl}amino)pyrimido[5,4-d]pyrimidine]
132 °C	CCOC(=O)CC(CC(=O)OCC)N1CCC(Nc2ncc3ncnc(Nc4cccc(Br)c4)c3n2)CC1 [Example 6(5), 4-[(3-bromophenyl)amino]-6-[(1-{1-[(ethoxycarbonyl)methyl]-2-(ethoxycarbonyl)ethyl}piperidin-4-yl)amino]pyrimido-[5,4-d]pyrimidine]
160 °C (dec.)	CC1(NCC(=O)O)CCN(c2ncc3ncnc(Nc4ccc(F)c(Cl)c4)c3n2)CC1 [Example 1(32), 4-[(3-chloro-4-fluorophenyl)amino]-6-{4-methyl-4-[(carboxymethyl)amino]piperidin-1-yl}pyrimido[5,4-d]pyrimidine]
136 to 137 °C	COC(=O)CCN1CCC(Nc2ncc3ncnc(Nc4ccc(F)c(Cl)c4)c3n2)CC1 [Example 2(5), 4-[(3-chloro-4-fluorophenyl)amino]-6-({1-[2-(methoxycarbonyl)ethyl]piperidin-4-yl}amino)pyrimido[5,4-d]pyrimidine]
140 to 142 °C	COC(=O)CCN1CCN(c2ncc3ncnc(Nc4ccc(F)c(Cl)c4)c3n2)CC1 [Example 2(11), 4-[(3-chloro-4-fluorophenyl)amino]-6-[4-[2-(methoxycarbonyl)ethyl]piperazin-1-yl]pyrimido[5,4-d]pyrimidine]
135 to 137 °C	CCCOC(=O)CN1CCC(Nc2ncc3ncnc(Nc4ccc(F)c(Cl)c4)c3n2)CC1 [Example 2(2), 4-[(3-chloro-4-fluorophenyl)amino]-6-({1-[(propyloxycarbonyl)methyl]piperidin-4-yl}amino)pyrimido[5,4-d]pyrimidine]
111 to 145 °C	O=C(O)CCN1CCN(c2ncc3ncnc(Nc4ccc(F)c(Cl)c4)c3n2)CC1 [Example 1(7), 4-[(3-chloro-4-fluorophenyl)amino]-6-[4-(2-carboxyethyl)piperazin-1-yl]pyrimido[5,4-d]pyrimidine]
226 to 235 °C	O=C(O)CNCC1CCN(c2ncc3ncnc(Nc4ccc(F)c(Cl)c4)c3n2)CC1 [Example 1(17), 4-[(3-chloro-4-fluorophenyl)amino]-6-(4-{[(carboxymethyl)amino]methyl}piperidin-1-yl)pyrimido[5,4-d]pyrimidine]
151 to 154 °C	COC(=O)C1CCCN1CC1CCN(c2ncc3ncnc(Nc4ccc(F)c(Cl)c4)c3n2)CC1 (stereo not shown) [Example 2(21), 4-[(3-chloro-4-fluorophenyl)amino]-6-(4-{[2-(methoxycarbonyl)pyrrolidin 1-yl]methyl}piperidin-1-yl)pyrimido[5,4-d]pyrimidine]
166 to 168 °C	COC(=O)CCC1CCN(C2CCN(c3ncc4ncnc(Nc5ccc(F)c(Cl)c5)c4n3)C2)CC1 (stereo not shown) [Example 2(16), 4-[(3-chloro-4-fluorophenyl)amino]-6-(3-{4-[2-(methoxycarbonyl)ethyl]piperidin-1-yl}-pyrrolidin-1-yl)pyrimido[5,4-d]pyrimidine]
